Measurements published in patent US7741488B2, “Tetrahydropyridothiophenes as antiproliferative agents for the treatment of cancer” (4SC AG, priority 2005, dated 2010).

What was measured:
[1] = test system: RKO (RKOp27) human colon adenocarcinoma cells; assay: Alamar Blue cell viability assay, anti-proliferative/cytotoxic activity on proliferating (uninduced) RKO p27 cells; type: cell-based; conditions: RKOp27, 72 h, proliferating cells without inducer Ponasterone A
Description: The anti-proliferative/cytotoxic activity of the compounds described herein, can be tested on subclones of RKO (RKOp27) human colon adenocarcinoma cells (Schmidt et al., Oncogene 19, 2423-2429; 2000) using the Alamar Blue cell viability assay (described in O'Brien et al. Eur J Biochem 267, 5421-5426, 2000). The compounds are dissolved as 20 mM solutions in dimethylsulfoxide (DMSO) and subsequently diluted in semi-logarithmic steps. DMSO dilutions are further diluted 1:100 into Dulbecco's modified Eagle's medium (DMEM) containing 10% fetal calf serum to a final concentration twice as much as the final concentration in the test. RKO subclones are seeded into 96 well flat bottom plates at a density of 4000 cells per well in a volume of 50 μl per well. 24 hours after seeding the 50 μl each of the compound dilutions in DMEM medium are added into each well of the 96 Well plate. Each compound dilution is tested as quadruplicates. Wells containing untreated control cells are filled with 50 μl DMEM medium containing 1% DMSO. The cells are then incubated with the substances for 72 hours at 37° C. in a humidified atmosphere containing 5% carbon dioxide. To determine the viability of the cells, 10 μl of an Alamar Blue solution (Biosource) are added and the fluorescence is measured at an extinction of 544 nm and an emission of 590 nm. For the calculation of the cell viability the emission value from untreated cells is set as 100% viability and the emission rates of treated cells are set in relation to the values of untreated cells. Viabilities are expressed as % values.
The corresponding IC50 values of the compounds for anti-proliferative/cytotoxic activity are determined from the concentration-effect curves.
Representative IC50 values for anti-proliferation/cytotoxicity determined in the mentioned assay follow from the following table A, in which the numbers of the compound correspond to the numbers of the examples.

[2] = test system: RKOp27 colon adenocarcinoma cells arrested by expression of ectopic p27Kip1; assay: Alamar Blue cell viability assay on RKO p27 cells arrested by Ponasterone A induced p27Kip1 (cell cycle specific mode of action); type: cell-based; conditions: Homo sapiens, 72 hours, cells arrested by p27Kip1 induced with 10 μM Ponasterone A
Description: To determine the cell cycle specific mode of action, subclones of RKO colon adenocarcinoma cells (RKOp27 or RKOp21 as described by Schmidt et al. in Oncogene 19, 2423-2429; 2000) are seeded into 96 well flat bottom plates at a density of 16000 cells per well in a volume of 50 μl per well in DMEM growth medium with 10% FCS containing 10 μM Ponasterone A. 24 hours after seeding the 50 μl each of the compound dilutions in DMEM medium are added into each well of the 96 Well plate. Each compound dilution is tested as quadruplicates. Wells containing untreated control cells are filled with 50 μl DMEM medium containing 1% DMSO. The cells are then incubated with the substances for 72 hours at 37° C. in a humidified atmosphere containing 5% carbon dioxide. To determine the viability of the cells, 10 μl of an Alamar Blue solution (Biosource) are added and the fluorescence was measured at an extinction of 544 nm and an emission of 590 nm. For the calculation of the cell viability the emission value from untreated cells is set as 100% viability and the emission rates of treated cells are set in relation to the values of untreated cells. Viabilities are expressed as % values. Viability is compared of proliferating cells grown in the absence of the inducer Ponasterone A, versus viability of cells arrested by the expression of ectopic p27Kip1 induced by Ponasterone A.

Structure (SMILES)	IC50 [1]	IC50 [2]
CCOC(=O)N1CCc2c(sc(NC(=O)C3CC3c3cc(C)ccc3OC)c2C#N)C1 (stereo not shown) [Example 54, 3-Cyano-2-({1-[2-(2-methoxy-5-methyl-phenyl)-cyclopropyl]-methanoyl}-amino)-4,7-dihydro-5H-thieno[2,3-c]pyridine-6-carboxylic acid ethyl ester]	300 to 2000 nM	> 100 µM
COc1ccc(OC)c(CCC(=O)Nc2sc3c(c2C#N)CCN(C(=O)OCCc2ccccn2)C3)c1 [Example 55, 3-Cyano-2-[3-(2,5-dimethoxy-phenyl)-propanoylamino]-4,7-dihydro-5H-thieno[2,3-c]pyridine-6-carboxylic acid 2-pyridin-2-yl-ethyl ester]	300 to 2000 nM	> 100 µM
COc1ccc(C)cc1CCC(=O)Nc1sc2c(c1C#N)CCN(C(=O)OCCN1CCOCC1)C2 [Example 56, 3-Cyano-2-[3-(2-methoxy-5-methyl-phenyl)-propanoylamino]-4,7-dihydro-5H-thieno[2,3-c]pyridine-6-carboxylic acid 2-morpholin-4-yl-ethyl ester]	300 to 2000 nM	> 100 µM
COc1ccc(C)cc1CCC(=O)Nc1sc2c(c1C#N)CCN(C(=O)OCc1cnccc1OC)C2 [Example 57, 3-Cyano-2-[3-(2-methoxy-5-methyl-phenyl)-propanoylamino]-4,7-dihydro-5H-thieno[2,3-c]pyridine-6-carboxylic acid 4-methoxy-pyridin-3-ylmethyl ester]	300 to 2000 nM	≥ 40 µM
COc1cccc(CCC(=O)Nc2sc3c(c2C#N)CCN(C(=O)OCCn2ccnc2)C3)c1 [Example 58, 3-Cyano-2-[3-(3-methoxy-phenyl)-propanoylamino]-4,7-dihydro-5H-thieno[2,3-c]pyridine-6-carboxylic acid 2-imidazol-1-yl-ethyl ester]	300 to 2000 nM	> 100 µM
COc1ccccc1CCC(=O)Nc1sc2c(c1C#N)CCN(C(=O)OCCc1cccnc1)C2 [Example 61, 3-Cyano-2-[3-(2-methoxy-phenyl)-propanoylamino]-4,7-dihydro-5H-thieno[2,3-c]pyridine-6-carboxylic acid 2-pyridin-3-yl-ethyl ester]	≤ 300 nM	> 100 µM
COc1ccccc1CCC(=O)Nc1sc2c(c1C#N)CCN(C(=O)OCCc1ccncc1)C2 [Example 62, 3-Cyano-2-[3-(2-methoxy-phenyl)-propanoylamino]-4,7-dihydro-5H-thieno[2,3-c]pyridine-6-carboxylic acid 2-pyridin-4-yl-ethyl ester]	≤ 300 nM	> 100 µM
COc1cccc(CCC(=O)Nc2sc3c(c2C#N)CCN(C(=O)OCCc2cccnc2)C3)c1 [Example 63, 3-Cyano-2-[3-(3-methoxy-phenyl)-propanoylamino]-4,7-dihydro-5H-thieno[2,3-c]pyridine-6-carboxylic acid 2-pyridin-3-yl-ethyl ester]	≤ 300 nM	≥ 40 µM
COc1cccc(CCC(=O)Nc2sc3c(c2C#N)CCN(C(=O)OCCc2ccncc2)C3)c1 [Example 64, 3-Cyano-2-[3-(3-methoxy-phenyl)-propanoylamino]-4,7-dihydro-5H-thieno[2,3-c]pyridine-6-carboxylic acid 2-pyridin-4-yl-ethyl ester]	≤ 300 nM	> 100 µM
COc1ccccc1CCC(=O)Nc1sc2c(c1C#N)CCN(C(=O)OCCn1ccnc1)C2 [Example 73, 3-Cyano-2-[3-(2-methoxy-phenyl)-propanoylamino]-4,7-dihydro-5H-thieno[2,3-c]pyridine-6-carboxylic acid 2-imidazol-1-yl-ethyl ester]	≤ 300 nM	> 100 µM
COc1ccc(C)cc1CCC(=O)Nc1sc2c(c1C#N)CCN(C(=O)OCCc1ccncc1)C2 [Example 106, 3-Cyano-2-[3-(2-methoxy-5-methyl-phenyl)-propanoylamino]-4,7-dihydro-5H-thieno[2,3-c]pyridine-6-carboxylic acid 2-pyridin-4-yl-ethyl ester]	≤ 300 nM	> 100 µM
